Experiments:
[1] = test system: SHR (spontaneously hypertensive rat); assay: Pulse rate by the tail cuff method in SHR rats; type: in vivo; details: mean±SD; for Pulse rate (bpm) Before dosing: n=10, baseline in acclimatization period; for Pulse rate (bpm) 2nd dosing week: n=10, oral once daily, CM6271 300 mg/kg, hydralazine 5 mg/kg, 23 to 25 hours after dosing in 2nd dosing week
Experimental: (§1) For statistical analysis of blood pressure, pulse rate and body weight data, Dunnett test was used to make intergroup comparisons, and the level of significance was less than 5% (p<0.05) and less than 1% (p<0.01).
(§2) Systolic blood pressure and pulse rate were measured in all animals by the tail cuff method using an automated noninvasive sphygmomanometer (BP-98A, Softron Co., Ltd.) once during the acclimatization period and 23 to 25 hours after dosing in the second dosing week. Figures in Table 2 represent mean±SD.

[2] = test system: SHR (spontaneously hypertensive rat); assay: Systolic blood pressure by the tail cuff method in SHR rats; type: in vivo; details: mean±SD; for Blood pressure (mmHg) Before dosing: n=10, baseline in acclimatization period; for Blood pressure (mmHg) 2nd dosing week: n=10, oral once daily, CM6271 300 mg/kg, hydralazine 5 mg/kg, 23 to 25 hours after dosing in 2nd dosing week, *p<0.05, **p<0.01 vs. control
Experimental: as §1, §2

[3] = Body weight of SHR rats during daily oral dosing; type: in vivo, rat; details: n=10, oral once daily, CM6271 300 mg/kg, hydralazine 5 mg/kg
Source text: Figures in Table 1 represent mean±SD (standard deviation).

[4] = test system: SHR (spontaneously hypertensive rat); details: SHR rats, observed once daily at dosing

SMILES: NNc1nncc2ccccc12 [Hydralazine, hydralazine]
- Pulse rate (bpm) Before dosing [1]: 401.3 ± 19.4 bpm
- Pulse rate (bpm) Before dosing ([1]; listed as hydralazine): 401.3 bpm
- Pulse rate (bpm) 2nd dosing week [1]: 423.6 ± 31.9 bpm
- Pulse rate (bpm) 2nd dosing week ([1]; listed as hydralazine): 423.6 bpm
- Blood pressure (mmHg) Before dosing [2]: 164.9 ± 8.8 mmHg
- Blood pressure (mmHg) Before dosing ([2]; listed as hydralazine): 164.9 mmHg
- Blood pressure (mmHg) 2nd dosing week [2]: 138.4 ± 12.1** mmHg
- Blood pressure (mmHg) 2nd dosing week ([2]; listed as hydralazine): 138.4 mmHg
- Body weight (g) Day 15 ([3]; Day 15, mean±SD): 261.5 ± 13.7 g
- Body weight (g) Day 22 ([3]; Day 22, mean±SD): 276.1 ± 12.8 g
- General observations [4]: Soft stools were observed in some animals
